Reference: patent publication US8921364B2, “Modulators of calcium release-activated calcium channel” (Rhizen Pharmaceuticals SA, priority 2009, dated 2014)
Structures can show the parent of a compound that is named as a salt. Where two headings read alike, the source gives them in different places.

Molecular target: CRAC channels (Homo sapiens (Human), UniProt Q96D31)
Experiment: In-vitro CRAC channel inhibition assay in Jurkat cells (thapsigargin-induced calcium influx)
Format: cell-based
Protocol: Inhibition of CRAC channels was determined following thapsigargin (Sigma, Cat # T9033) induced endoplasmic calcium release in Jurkat cells. […] Cells were centrifuged and re-suspended in equal volumes ° f Ca^2+ and Mg^2+ free Hanks buffer and Fluo-8 NW dye (ABD Bioquest, Inc., Sunnyvale, Calif.) loading solution at 2×10^5 cells/100 μl/well in 96-well black plate. Plate is incubated at 37° C., 5% CO2 for 30 min followed by further 15 min incubation at room temperature. Test compounds (DMSO stocks diluted in Ca^2+ and Mg^2+ free Hanks buffer) at desired concentrations were added to the wells and incubated for […] Thapsigargin (1 μM final concentration) was added to the wells and incubated for 15 min to inhibit the Sarco-endoplasmic reticulum Ca^2+ ATPase pump thereby depleting endoplasmic calcium and raising cytosolic calcium concentrations. Store-operated calcium entry was initiated by adding extracellular Ca^2+ to a final concentration of 1.8 mM. Fluorescence was monitored over […] on a plate reader (BMG Labtech., Germany) with excitation at 485 nm and an emission wavelength at 520 nm. Data were analyzed using GraphPad Prism. IC50 for each compound was determined based on the percent inhibition of thapsigargin-induced calcium influx into cells.

[1] = Jurkat cells, thapsigargin-induced calcium influx

CRAC channels, sequence (Q96D31 whole entry): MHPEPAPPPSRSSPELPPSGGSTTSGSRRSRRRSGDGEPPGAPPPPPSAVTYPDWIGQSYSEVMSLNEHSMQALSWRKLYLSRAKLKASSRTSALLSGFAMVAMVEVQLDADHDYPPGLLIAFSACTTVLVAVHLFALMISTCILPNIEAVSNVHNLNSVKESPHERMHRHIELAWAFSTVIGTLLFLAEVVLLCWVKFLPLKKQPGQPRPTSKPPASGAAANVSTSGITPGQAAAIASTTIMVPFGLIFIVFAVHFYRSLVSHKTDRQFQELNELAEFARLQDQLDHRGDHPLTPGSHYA

Row | IC50 [1] [nM] | Compound | also measured
1 | 47.2 | O=C(Nc1ccc(-n2nc(C(F)(F)F)cc2C2CC2)nc1)c1cccnc1 [Example 111, N-{6-[5-cyclopropyl-3-(trifluoromethyl)-1H-pyrazol-1-yl]pyridin-3-yl}nicotinamide hydrochloride] | 
2 | 373 | Cc1ncsc1C(=O)Nc1ccc(-n2nc(C(F)(F)F)cc2CF)cc1 [Example 125, N-{4-[5-(fluoromethyl)-3-(trifluoromethyl)-1H-pyrazol-1-yl]phenyl}-4-methylthiazole-5-carboxamide] | 
3 | 124 | Cc1noc(C)c1C(=O)Nc1ccc(-n2nc(C(F)(F)F)cc2C2CC2)cc1 [Example 57, N-{4-[5-cyclopropyl-3-(trifluoromethyl)-1H-pyrazol-1-yl]phenyl}-3,5-dimethylisoxazole-4-carboxamide] | 
4 | 244 | O=C(Nc1ccc(-n2nc(C3CC3)cc2C2CC2)cc1)c1ccncc1F [Example 16, N-[4-(3,5-dicyclopropyl-1H-pyrazol-1-yl)phenyl]-3-fluoroisonicotinamide] | 
5 | 35.7 | Cc1nnsc1C(=O)Nc1ccc(-n2nc(C(F)(F)F)cc2C2CC2)c(F)c1 [Example 82, N-{4-[5-cyclopropyl-3-(trifluoromethyl)-1H-pyrazol-1-yl]-3-fluorophenyl}-4-methyl-1,2,3-thiadiazole-5-carboxamide] | 
6 | 436 | O=C(Nc1ccc(-n2nc(C3CC3)cc2C2CC2)nc1)c1c(F)cccc1F [Example 45, N-[6-(3,5-dicyclopropyl-1H-pyrazol-1-yl)pyridin-3-yl]-2,6-difluorobenzamide hydrochloride] | 
7 | 23 | Cc1ccccc1C(=O)Nc1ccc(-n2nc(C(F)(F)F)cc2C2CC2)nc1 [Example 104, N-{6-[5-cyclopropyl-3-(trifluoromethyl)-1H-pyrazol-1-yl]pyridin-3-yl}-2-methylbenzamide] | 
8 | 130 | O=C(Nc1ccc(-n2nc(C3CC3)cc2C2CC2)cc1)c1c(Cl)cncc1Cl [Example 17, 3,5-dichloro-N-(4-(3,5-dicyclopropyl-1H-pyrazol-1-yl)phenyl)isonicotinamide] | 
9 | 184 | Cc1nnsc1C(=O)Nc1ccc(-n2nc(C(F)(F)F)cc2C2CC2)cc1 [Example 52, N-{4-[5-cyclopropyl-3-(trifluoromethyl)-1H-pyrazol-1-yl]phenyl}-4-methyl-1,2,3-thiadiazole-5-carboxamide] | 
10 | 70.3 | O=C(Nc1ccc(-n2nc(C(F)(F)F)cc2C2CC2)nc1)c1cccc(F)c1F [Example 107, N-{6-[5-cyclopropyl-3-(trifluoromethyl)-1H-pyrazol-1-yl]pyridin-3-yl}-2,3-difluorobenzamide] | 
11 |  | N-{4-[3-cyclopropyl-5-(difluoromethyl)-1H-pyrazol-1-yl]-3-fluorophenyl}-2,6-difluorobenzamide and N-{4-[5-cyclopropyl-3-(difluoromethyl)-1H-pyrazol-1-yl]-3-fluorophenyl}-2,6-difluorobenzamide [Example 135] | % inhibition (1 uM) [1]: 100%
12 | 72.1 | O=C(Nc1c(F)cccc1F)c1ccc(-n2nc(C(F)(F)F)cc2C2CC2)nc1 [Example 122, 6-[5-cyclopropyl-3-(trifluoromethyl)-1H-pyrazol-1-yl]-N-(2,6-difluorophenyl) nicotinamide] | 
13 | 150 | Cc1nnsc1C(=O)Nc1ccc(-n2nc(C(F)(F)F)cc2C2CC2)nc1 [Example 101, N-{6-[5-cyclopropyl-3-(trifluoromethyl)-1H-pyrazol-1-yl]pyridin-3-yl}-4-methyl-1,2,3-thiadiazole-5-carboxamide] | 
14 | 20.8 | Cc1oncc1C(=O)Nc1ccc(-n2nc(C(F)(F)F)cc2C2CC2)c(F)c1 [Example 84, N-{4-[5-cyclopropyl-3-(trifluoromethyl)-1H-pyrazol-1-yl]-3-fluorophenyl}-5-methylisoxazole-4-carboxamide] | 
15 | 36.4 | Cc1ccccc1C(=O)Nc1ccc(-n2nc(C3CC3)cc2C2CC2)cc1 [Example 7, N-[4-(3,5-dicyclopropyl-1H-pyrazol-1-yl)phenyl]-2-methylbenzamide] | 
16 | 207 | Cc1ncsc1C(=O)Nc1ccc(-n2nc(C3CC3)cc2C2CC2)cc1 [Example 2, N-[4-(3,5-dicyclopropyl-1H-pyrazol-1-yl)phenyl]-4-methylthiazole-5-carboxamide] | 
17 | 968 | O=C(Cc1ccccn1)Nc1ccc(-n2nc(C3CC3)cc2C2CC2)cc1 [Example 22, N-[4-(3,5-dicyclopropyl-1H-pyrazol-1-yl)phenyl]-2-(pyridin-2-yl)acetamide hydrochloride] | 
18 | 60.3 | Cc1nnsc1C(=O)Nc1ccc(-n2nc(C3CC3)cc2C2CC2)c(F)c1 [Example 28, N-[4-(3,5-dicyclopropyl-1H-pyrazol-1-yl)-3-fluorophenyl]-4-methyl-1,2,3-thiadiazole-5-carboxamide] | 

Row | IC50 [1] [nM] | Compound | also measured
19 | 124 | O=C(Nc1c(F)cccc1F)c1ccc(-n2nc(C(F)(F)F)cc2C2CC2)cc1 [Example 79, 4-[5-cyclopropyl-3-(trifluoromethyl)-1H-pyrazol-1-yl]-N-(2,6-difluorophenyl)benzamide] | 
20 |  | Cc1ncccc1C(=O)Nc1ccc(-n2nc(C(F)(F)F)cc2C2CC2)nc1.Cl [Example 112, N-{6-[5-cyclopropyl-3-(trifluoromethyl)-1H-pyrazol-1-yl]pyridin-3-yl}-2-methyl nicotinamide hydrochloride] | % inhibition (1 uM) [1]: 36.44%
21 | 34.1 | Cc1ncsc1NC(=O)c1ccc(-n2nc(C(F)(F)F)cc2C2CC2)cc1 [Example 78, 4-[5-cyclopropyl-3-(trifluoromethyl)-1H-pyrazol-1-yl]-N-(4-methylthiazol-5-yl)benzamide] | 
22 | 81.2 | Cc1ncncc1C(=O)Nc1ccc(-n2nc(C(F)(F)F)cc2C2CC2)c(F)c1 [Example 93, N-{4-[5-cyclopropyl-3-(trifluoromethyl)-1H-pyrazol-1-yl]-3-fluorophenyl}-4-methylpyrimidine-5-carboxamide] | 
23 | 224 | Cc1ncncc1C(=O)Nc1ccc(-n2nc(C3CC3)cc2C2CC2)c(F)c1 [Example 36, N-[4-(3,5-dicyclopropyl-1H-pyrazol-1-yl)-3-fluorophenyl]-4-methylpyrimidine-5-carboxamide] | 
24 | 62.6 | O=C(Nc1ccc(-n2nc(C(F)(F)F)cc2C2CC2)nc1)c1ccncc1 [Example 113, N-{6-[5-cyclopropyl-3-(trifluoromethyl)-1H-pyrazol-1-yl]pyridin-3-yl}isonicotinamide hydrochloride] | 
25 | 600 | Cc1ncncc1NC(=O)Nc1ccc(-n2nc(C(F)(F)F)cc2C2CC2)c(F)c1 [Example 97, 1-{4-[5-cyclopropyl-3-(trifluoromethyl)-1H-pyrazol-1-yl]-3-fluorophenyl}-3-(4-methylpyrimidin-5-yl)urea] | 
26 | 60 | O=C(Nc1ccc(-n2nc(C(F)(F)F)cc2C2CC2)nc1)c1ccccc1F [Example 106, N-(6-(5-cyclopropyl-3-(trifluoromethyl)-1H-pyrazol-1-yl)pyridin-3-yl)-2-fluorobenzamide] | 
27 |  | Cc1oncc1C(=O)Nc1ccc(-n2nc(C3CC3)cc2C2CC2)cc1 [Example 4, N-[4-(3,5-dicyclopropyl-1H-pyrazol-1-yl)phenyl]-5-methylisoxazole-4-carboxamide] | IC50: 256 nM
28 | 48.2 | Cc1ncsc1C(=O)Nc1ccc(-n2nc(C(F)(F)F)cc2C2CC2)c(F)c1 [Example 83, N-{4-[5-cyclopropyl-3-(trifluoromethyl)-1H-pyrazol-1-yl]-3-fluorophenyl}-4-methylthiazole-5-carboxamide] | 
29 | 72 | Cc1ncsc1C(=O)Nc1ccc(-n2nc(C(F)(F)F)cc2C2CC2)cc1 [Example 53, N-{4-[5-cyclopropyl-3-(trifluoromethyl)-1H-pyrazol-1-yl]phenyl}-4-methylthiazole-5-carboxamide] | 
30 | 457 | O=C(Cc1ccccc1)Nc1ccc(-n2nc(C3CC3)cc2C2CC2)cc1 [Example 19, N-[4-(3,5-dicyclopropyl-1H-pyrazol-1-yl)phenyl]-2-phenylacetamide] | 
31 | 62.4 | Cc1nnsc1C(=O)Nc1ccc(-n2nc(C3CC3)cc2C2CC2)cc1 [Example 1, N-[4-(3,5-dicyclopropyl-1H-pyrazol-1-yl)phenyl]-4-methyl-1,2,3-thiadiazole-5-carboxamide] | 
32 | 63.2 | Cc1oncc1C(=O)Nc1ccc(-n2nc(C(F)(F)F)cc2C2CC2)cc1 [Example 56, N-{4-[5-cyclopropyl-3-(trifluoromethyl)-1H-pyrazol-1-yl]phenyl}-5-methylisoxazole-4-carboxamide] | 
33 | 37.6 | O=C(Nc1ccc(-n2nc(C(F)(F)F)cc2C2CC2)nc1)c1ccncc1F [Example 114, N-{6-[5-cyclopropyl-3-(trifluoromethyl)-1H-pyrazol-1-yl]pyridin-3-yl}-3-fluoroisonicotinamide] | 
34 | 50.6 | O=C(Nc1ccc(-n2nc(C(F)(F)F)cc2C2CC2)nc1)c1c(F)cccc1F [Example 108, N-{6-[5-cyclopropyl-3-(trifluoromethyl)-1H-pyrazol-1-yl]pyridin-3-yl}-2,6-difluorobenzamide] | 
35 | 295 | O=C(Nc1cnc(-n2nc(C(F)(F)F)cc2C2CC2)nc1)c1c(F)cccc1F [Example 124, N-{2-[5-cyclopropyl-3-(trifluoromethyl)-1H-pyrazol-1-yl]pyrimidin-5-yl}-2,6-difluorobenzamide] | 
36 | 52.6 | Cc1ncsc1C(=O)Nc1ccc(-n2nc(C(F)(F)F)cc2C(F)F)cc1 [Example 126, N-{4-[5-(difluoromethyl)-3-(trifluoromethyl)-1H-pyrazol-1-yl]phenyl}-4-methyl thiazole-5-carboxamide] | 
